Measured values reported in patent US20240148627A1, “[…] FOR THE SKIN” (priority 2021, published 2024).

Tested on: Vaccinia virus Elstree strain
Type: cell-based

C=O [formaldehyde]
Reference trial inactivation of the virus: 3.13E+00 log DIT C50
